Results reported in patent US7332476B2, “Pyridyl substituted ketolide antibiotics” (Novartis AG, priority 2003, dated 2008).
≈ marks a conversion by molar mass, not a printed value.

What was measured:
Assay in all cases: MIC, broth microdilution (NCCLS)
[1] = test system: Streptococcus pneumoniae Stpn_297-749; type: cell-based; design: MIC, strain ID N: unit not given here; settings: for MIC, strain ID N: broth microdilution; for MIC: Table 10, Strain ID N (Table 8): Streptococcus pneumoniae Stpn_297-749
Summary of the method: (§1)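 Broth microdilution per NCCLS in cation-adjusted Mueller-Hinton broth, with 2-5% lysed horse blood added for S. pneumoniae. Inoculum 3×10^5–7×10^5 CFU/ml, 2-fold drug dilutions, 18-24 h at 35° C; S. pneumoniae under 5-10% CO2, others ambient air. MIC = lowest concentration preventing visible growth.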

[2] = test system: S. pneumoniae Stpn_Erm 6849; type: cell-based, Streptococcus pneumoniae; settings: strain ID P; broth microdilution; in µg/mL (unit assumed)
Summary of the method: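 Lowest drug concentration giving no visible growth after 18-24 hours at 35° C. under 5-10% CO2 was taken as MIC. Twofold serial dilutions in CAMHB plus 2-5% lysed horse blood, final inoculum 3×10^5–7×10^5 CFU/ml, per NCCLS microdilution.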

[3] = test system: Haemophilus influenzae Hain_960820544-3; type: cell-based; settings: in µg/mL (unit assumed); for MIC, strain ID J: broth microdilution; for MIC: Table 10, Strain ID J (Table 8): Haemophilus influenzae Hain_960820544-3
Description: (§2) Strains. The bacterial isolates listed in Table 8 were cultivated from −70° C. frozen stocks by two consecutive overnight passages (P1, P2) at 35° C. on 5% blood agar (Remel, Lenexa, Kans.). Chocolate agar (Remel) is used for Haemophilus influenzae. H. influenzae and Streptococcus pneumoniae are incubated in 5-10% CO2
(§3) Drug Stock Preparation. To determine the amount of solvent to be used to give the desired final concentration, the formula “weight obtained in mg/final concentration in mg/ml” will be used. It will give the amount of solvent in ml needed to be added to give the desired concentration. For example, if 2.5 mg/ml is the desired concentration and the weight of compound is 13.7 mg, then the amount of solvent to be added is […]. Methanol is used as the solvent to dissolve the test compounds. Further dilution of stock is done in sterile, deionized water. Drug stocks are kept frozen at −70° C., protected from light.
(§4) Susceptibility Testing. MICs are determined by the broth microdilution method in accordance with the NCCLS guidelines. In brief, organism suspensions are adjusted to a 0.5 McFarland standard to yield a final inoculum between 3×10^5 and 7×10^5 CFU/ml. Drug dilutions and inocula are made in sterile, cation adjusted Mueller-Hinton Broth (CAMHB) (Remel) for all but S. pneumoniae [CAMHB with 2-5% lysed horse blood (Remel)] and H. influenzae [Haemophilus Test Medium (Remel)]. An inoculum volume of 100 μl is added to wells containing 100 μl of broth with 2-fold serial dilutions of drug. All inoculated microdilution trays are incubated in ambient air at 35° C. for 18-24 hours, except for S. pneumoniae, and H. influenzae (both at 5-10% CO2).
(§5) Following appropriate incubation, the MIC is determined and the MIC is defined as the lowest concentration of the drug that prevented visible growth. […] Antibacterial activity of representative compounds of the invention were compared against telitromycin.

[4] = test system: Enterococcus faecalis Enfa_bc 11148-2; type: cell-based; settings: in µg/mL (unit assumed); for MIC, strain ID F: broth microdilution; for MIC: Table 10, Strain ID F (Table 8): Enterococcus faecalis Enfa_bc 11148-2
Description: as §2, §3, §4, §5

[5] = test system: Haemophilus influenzae Hain_2762; type: cell-based; settings: in µg/mL (unit assumed); for MIC, strain ID L: broth microdilution; for MIC: Table 10, Strain ID L (Table 8): Haemophilus influenzae Hain_2762
Description: as §2, §3, §4, §5

[6] = test system: Haemophilus influenzae Hain_960730503-3; type: cell-based; settings: in µg/mL (unit assumed); for MIC, strain ID I: broth microdilution; for MIC: Table 10, Strain ID I (Table 8): Haemophilus influenzae Hain_960730503-3
Description: as §2, §3, §4, §5

[7] = test system: Haemophilus influenzae Hain_953460299-3; type: cell-based; settings: in µg/mL (unit assumed); for MIC, strain ID K: broth microdilution; for MIC: Table 10, Strain ID K (Table 8): Haemophilus influenzae Hain_953460299-3
Description: as §2, §3, §4, §5

[8] = test system: Staphylococcus aureus Stau_33591; type: cell-based; settings: unit assumed; for MIC, strain ID B: broth microdilution; for MIC: Table 10, Strain ID B (Table 8): Staphylococcus aureus Stau_33591
Description: as §2, §3, §4, §5

[9] = test system: Staphylococcus aureus Stau_29213; type: cell-based; settings: in µg/mL (unit assumed); for MIC, strain ID A: broth microdilution; for MIC: Table 10, Strain ID A (Table 8): Staphylococcus aureus Stau_29213
Summary of the method: as §1

[10] = test system: Staphylococcus epidermidis Step_f50654; type: cell-based; settings: in µg/mL (unit assumed); for MIC, strain ID D: broth microdilution; for MIC: Table 10, Strain ID D (Table 8): Staphylococcus epidermidis Step_f50654
Summary of the method: as §1

[11] = test system: Streptococcus pneumoniae Stpn_Erm S 4297; type: cell-based; settings: for MIC, strain ID Q: broth microdilution; for MIC: Table 10, Strain ID R (Table 8): Streptococcus pneumoniae Stpn_Erm S 4297, unit assumed
Summary of the method: as §1

[12] = test system: Enterococcus faecalis Enfa_29212; type: cell-based; settings: for MIC, strain ID E: broth microdilution; for MIC: Table 10, Strain ID E (Table 8): Enterococcus faecalis Enfa_29212
Summary of the method: as §1

[13] = test system: Staphylococcus epidermidis Step_14990; type: cell-based; settings: in µg/mL (unit assumed); for MIC, strain ID C: broth microdilution; for MIC: Table 10, Strain ID C (Table 8): Staphylococcus epidermidis Step_14990
Summary of the method: as §1

[14] = test system: Haemophilus influenzae Hain_49247; type: cell-based; settings: unit assumed; for MIC, strain ID H: broth microdilution; for MIC: Table 10, Strain ID H (Table 8): Haemophilus influenzae Hain_49247
[15] = test system: Streptococcus pneumoniae Stpn_49619; type: cell-based; design: MIC, strain ID M: unit not given beside the values; settings: for MIC, strain ID M: broth microdilution; for MIC: Table 10, Strain ID M (Table 8): Streptococcus pneumoniae Stpn_49619
Summary of the method: as §1

[16] = test system: Streptococcus pneumoniae Stpn_280-962; type: cell-based; design: MIC, strain ID O: unit not given beside the values; settings: for MIC, strain ID O: broth microdilution; for MIC: Table 10, Strain ID O (Table 8): Streptococcus pneumoniae Stpn_280-962
Summary of the method: as §1

[17] = test system: Streptococcus pyogenes Stpy_8668; type: cell-based; design: MIC, strain ID G: unit not given beside the values; settings: for MIC, strain ID G: broth microdilution; for MIC: Table 10, Strain ID G (Table 8): Streptococcus pyogenes Stpy_8668
Summary of the method: as §1

[18] = test system: Streptococcus pneumoniae Stpn_Mef S 3427; type: cell-based; settings: Table 10, Strain ID Q (Table 8): Streptococcus pneumoniae Stpn_Mef S 3427; in µg/mL (unit assumed)
Summary of the method: as §1

[19] = test system: Streptococcus pneumoniae Stpn_Mef 5654; type: cell-based; settings: Table 10, Strain ID P (Table 8): Streptococcus pneumoniae Stpn_Mef 5654; in µg/mL (unit assumed)
Summary of the method: as §1

Structure (SMILES)	MIC, strain ID N [1]	MIC, strain ID P [2]	MIC, strain ID J [3]	MIC, strain ID F [4]	MIC, strain ID L [5]	MIC, strain ID I [6]	MIC, strain ID K [7]	MIC, strain ID B [8]	MIC, strain ID A [9]	MIC, strain ID D [10]	MIC, strain ID Q ([11]; in µg/mL (unit assumed))	MIC, strain ID E ([12]; in µg/mL (unit assumed))	MIC, strain ID C [13]	MIC, strain ID H [14]	MIC, strain ID M [15]	MIC, strain ID O [16]	MIC, strain ID G [17]	MIC [1]	MIC [3]	MIC [4]	further results
C=C[C@]12OC(=O)N(CCCCn3cnc(-c4cnc(Cl)c(C)c4)c3)[C@@H]1[C@@H](C)C(=O)[C@H](C)C[C@](C)(OC)[C@H](OC1O[C@H](C)C[C@H](N(C)C)[C@H]1O)[C@@H](C)C(=O)[C@@H](C)C(=O)O[C@@H]2CC (some centres unmarked) [XXXVIII]	=0.05	0.2	12.5	3.13	1.56	6.25	12.5	> 50 µg/mL	0.1	0.4	0.2	0.1	0.1	3.13 µg/mL (≈ 3.59 µM)	=0.05	=0.05	=0.05	–	–	–	–
C=C[C@]12OC(=O)N(CCCCn3cnc(-c4ccc(Cl)nc4)c3C)[C@@H]1[C@@H](C)C(=O)[C@H](C)C[C@](C)(OC)[C@H](OC1O[C@H](C)C[C@H](N(C)C)[C@H]1O)[C@@H](C)C(=O)[C@@H](C)C(=O)O[C@@H]2CC (some centres unmarked) [XXXVII]	=0.05	0.78	6.25	0.78	1.56	12.5	6.25	> 50 µg/mL	0.2	0.2	0.2	0.1	0.2	6.25 µg/mL (≈ 7.16 µM)	=0.05	=0.05	=0.05	–	–	–	–
C=C[C@]12OC(=O)N(CCCCn3cc(-c4ccc(Cl)nc4)nc3C)[C@@H]1[C@@H](C)C(=O)[C@H](C)C[C@](C)(OC)[C@H](OC1O[C@H](C)C[C@H](N(C)C)[C@H]1O)[C@@H](C)C(=O)[C@@H](C)C(=O)O[C@@H]2CC (some centres unmarked) [XXIX]	=0.05	0.78	6.25	3.13	1.56	6.25	12.5	> 50 µg/mL	0.2	0.2	–	0.1	0.1	6.25 µg/mL (≈ 7.16 µM)	=0.05	=0.05	=0.05	–	–	–	MIC, strain ID Q [11]: =0.05
C#C[C@]12OC(=O)N(CCCCn3cnc(-c4ccc(Cl)nc4)c3)[C@@H]1[C@@H](C)C(=O)[C@H](C)C[C@](C)(OC)[C@H](OC1O[C@H](C)C[C@H](N(C)C)[C@H]1O)[C@@H](C)C(=O)[C@@H](C)C(=O)O[C@@H]2CC (some centres unmarked) [XXXIV]	=0.05	0.4	6.25	0.4	0.78	6.25	6.25	> 50 µg/mL	0.1	0.1	0.1	–	0.1	3.13 µg/mL (≈ 3.65 µM)	=0.05	=0.05	=0.05	–	–	–	MIC, strain ID E [12]: =0.05
CC[C@H]1OC(=O)[C@H](C)C(=O)[C@H](C)[C@@H](OC2O[C@H](C)C[C@H](N(C)C)[C@H]2O)[C@@](C)(OC)C[C@@H](C)C(=O)[C@H](C)[C@H]2N(CCCCn3cnc(-c4ccc(C)nc4)c3)C(=O)O[C@]12CC (some centres unmarked) [XIII]	–	–	–	–	–	–	–	–	–	–	–	–	–	–	–	–	–	=0.05	6.25	3.13	MIC [5]: 1.56; MIC [6]: 6.25; MIC [7]: 6.25; MIC [8]: > 50 µg/mL; MIC [18]: 0.2; MIC [9]: 0.4; MIC [10]: 0.4; MIC [11]: 0.2 µg/mL (≈ 0.238 µM); MIC ([12]; in µg/mL (unit assumed)): 0.2; MIC [13]: 0.2; MIC [14]: 6.25 µg/mL (≈ 7.44 µM); MIC [15]: =0.05; MIC [19]: 0.78; MIC [16]: =0.05; MIC [17]: =0.05
CC[C@H]1OC(=O)[C@H](C)C(=O)[C@H](C)[C@@H](OC2O[C@H](C)C[C@H](N(C)C)[C@H]2O)[C@@](C)(OC)C[C@@H](C)C(=O)[C@H](C)[C@H]2N(CCCCn3cnc(-c4ccc(OC)nc4)c3)C(=O)O[C@]12CC (some centres unmarked) [XVII]	–	–	–	–	–	–	–	–	–	–	–	–	–	–	–	–	–	=0.05	12.5	3.13	MIC [5]: 1.56; MIC [6]: 6.25; MIC [7]: 12.5; MIC [8]: > 50 µg/mL; MIC [18]: 0.2; MIC [9]: 0.2; MIC [10]: 0.2; MIC [11]: 0.2 µg/mL (≈ 0.234 µM); MIC ([12]; in µg/mL (unit assumed)): 0.1; MIC [13]: 0.4; MIC [14]: 6.25 µg/mL (≈ 7.3 µM); MIC [15]: =0.05; MIC [19]: 0.78; MIC [16]: =0.05; MIC [17]: =0.05
